Assay: xn = mol fraction of the nth substance listed

CCC[n+]1ccn(C)c1.C[C@H](N)C(=O)[O-] + O
viscosity [mPa·s], 100.3 kPa
Details	288.15 K	293.15 K	298.15 K	303.15 K	308.15 K	313.15 K	318.15 K	323.15 K	328.15 K
x1 = 0.0003008	1.156	1.017	0.9	0.81	0.727	0.661	0.604	0.554	0.511
x1 = 0.0003999	1.162	1.022	0.907	0.813	0.732	0.664	0.606	0.557	0.513
x1 = 0.0004953	1.167	1.027	0.911	0.817	0.735	0.666	0.608	0.559	0.516
x1 = 0.001005	1.203	1.057	0.938	0.838	0.755	0.685	0.626	0.573	0.529
x1 = 0.003004	1.362	1.197	1.057	0.939	0.842	0.759	0.688	0.629	–
x1 = 0.004999	1.513	1.326	1.163	1.028	0.917	0.828	0.749	0.685	–
x1 = 0.007004	1.658	1.447	1.273	1.119	0.998	0.894	0.806	0.736	–
x1 = 0.008999	1.822	1.576	1.368	1.21	1.071	0.959	0.868	0.781	–
x1 = 0.011	1.958	1.698	1.478	1.302	1.147	1.027	0.929	0.832	–
x1 = 0.01301	2.101	1.819	1.581	1.38	1.225	1.089	0.986	0.888	–
x1 = 0.015	2.247	1.941	1.678	1.469	1.293	1.157	1.037	0.932	–
x1 = 0.01799	2.46	2.109	1.826	1.599	1.394	1.254	1.115	1	–

O=C([O-])CC(O)(CC(=O)[O-])C(=O)[O-].[NH4+].[NH4+].[NH4+] + CC[n+]1ccn(C)c1.O=S(=O)([O-])O + O
viscosity [mPa·s], 101 kPa
Details	x1 = 0.0003657, x2 = 0	x1 = 0.0007347, x2 = 0	x1 = 0.001087, x2 = 0	x1 = 0.001443, x2 = 0	x1 = 0.00179, x2 = 0	x1 = 0.002235, x2 = 0	x1 = 0.00271, x2 = 0
293.15 K	1.022	1.043	1.063	1.083	1.102	1.127	1.153
298.15 K	0.923	0.939	0.953	0.965	0.976	0.989	1.002
303.15 K	0.829	0.846	0.859	0.872	0.883	0.897	0.911
308.15 K	0.75	0.768	0.782	0.795	0.807	0.822	0.837
313.15 K	0.684	0.702	0.717	0.731	0.744	0.76	0.776

NC(N)=NCCC[C@H](N)C(=O)O + CCCC[N+](C)(CCCC)CCCC.[Cl-] + O
viscosity [mPa·s], 101.3 kPa
Details	293.15 K	298.15 K	303.15 K	308.15 K	313.15 K
x1 = 0.0003636, x2 = 0.00072	1.06	0.94	0.85	0.76	0.69
x1 = 0.0003667, x2 = 0.001439	1.1	0.98	0.88	0.79	0.72
x1 = 0.0007271, x2 = 0.0007198	1.07	0.95	0.86	0.78	0.7
x1 = 0.0007335, x2 = 0.001438	1.11	0.99	0.89	0.8	0.73
x1 = 0.001088, x2 = 0.0007195	1.08	0.97	0.87	0.79	0.71
x1 = 0.001096, x2 = 0.001438	1.12	1	0.9	0.82	0.75
x1 = 0.001452, x2 = 0.0007192	1.1	0.98	0.88	0.8	0.72
x1 = 0.001464, x2 = 0.001437	1.13	1.01	0.91	0.83	0.76
x1 = 0.001809, x2 = 0.001437	1.15	1.02	0.92	0.84	0.77
x1 = 0.001816, x2 = 0.000719	1.11	0.99	0.89	0.81	0.73
x1 = 0.002177, x2 = 0.0007187	1.12	1	0.9	0.82	0.75
x1 = 0.002195, x2 = 0.001436	1.16	1.04	0.94	0.85	0.78
x1 = 0.002535, x2 = 0.0007185	1.13	1.02	0.92	0.84	0.76
x1 = 0.00256, x2 = 0.001436	1.17	1.05	0.95	0.87	0.79

CCCCCCCCCCCCCC[P+](CCCCCC)(CCCCCC)CCCCCC.[Cl-] + O
100 kPa, x2 = 0.818
Details	viscosity [mPa·s]
318.15 K	50.65
323.15 K	41.05

C[n+]1ccn(CCCC#N)c1.O=S(=O)([O-])C(F)(F)F + CC#N
101 kPa
Details	electrical conductivity [S/m]	viscosity [mPa·s]
288.15 K, x1 = 0.1002	2.7	1.65
288.15 K, x1 = 0.2994	1.04	16.49
288.15 K, x1 = 0.5	0.185	109.8
293.15 K, x1 = 0.6005	0.22	119.8
298.15 K, x1 = 0.7996	0.114	307
303.15 K, x1 = 0.9007	0.082	330
303.15 K, x1 = 1	0.06	422
308.15 K, x1 = 0.2994	1.7	9.19
308.15 K, x1 = 1	0.08	310
313.15 K, x1 = 0.2002	2.88	3.74
313.15 K, x1 = 0.5	0.575	36.34
313.15 K, x1 = 0.7996	0.239	133.1
318.15 K, x1 = 0.1002	3.76	1.06
318.15 K, x1 = 0.5	0.679	29.94
318.15 K, x1 = 0.698	0.351	73.7
318.15 K, x1 = 0.9007	0.168	135
323.15 K, x1 = 0.1002	3.95	0.99
323.15 K, x1 = 0.6005	0.7	32.11

CC(=O)[O-].Cn1cc[n+](CCO)c1 + O
100 kPa
Details	viscosity [mPa·s]
293.15 K, x1 = 0.9003	93.9
298.15 K, x1 = 0.8317	41.2
298.15 K, x1 = 0.8712	56.8
303.15 K, x1 = 0.8317	32
303.15 K, x1 = 0.8712	43.6
308.15 K, x1 = 0.8317	25.4
308.15 K, x1 = 0.8818	36.7
313.15 K, x1 = 0.8632	25.8
313.15 K, x1 = 0.8712	26.6
313.15 K, x1 = 0.8818	29
323.15 K, x1 = 0.8818	19.3
328.15 K, x1 = 0.8712	14.72
333.15 K, x1 = 0.8818	13.46
333.15 K, x1 = 0.9003	14.78

CCC(C)O (centres undefined) + CC[n+]1ccn(C)c1.O=S(=O)([O-])C(F)(F)F
Details	viscosity [mPa·s]
308.15 K, 101 kPa, x2 = 0	2

CCC(C)O (centres undefined) + CC[n+]1ccn(C)c1.N#C[N-]C#N
100 kPa, x2 = 0
Details	viscosity [mPa·s]
298.15 K	3.01
303.15 K	2.55
308.15 K	2.21
313.15 K	1.97
318.15 K	1.79
323.15 K	1.63
